In PubChem BioAssay AID1259411 (Chemical Carcinogenesis Research Information System (CCRIS), 2018):
Calls of active or inactive are those of the source. No rule for the calls is given here.

System: rodent carcinogenicity bioassays, tumor incidence
Test: CCRIS carcinogenicity studies
Details: Dose: 0, Dose: 0
In short: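 NCI-built, expert-reviewed records of carcinogenicity and related test outcomes (mutagenicity, tumor promotion/inhibition) compiled from published and report sources, historical span 1985-2011, not updated.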

**Q.** Which results are given for `CNC(=O)N(C)N=O`?
**A.** carcinogen call (Species: RAT, Strain/Sex: F344/FEMALE, Route: GAVAGE, 20, 40 UMOL/WK IN CORN OIL/ETHYL ACETATE (2: 1) FOR 30 WK FOR TOTAL DOSES OF 0, 0.6, 1.2 MMOL (STUDY DURATION: LIFETI, 20, 40 UMOL/WK IN CORN OIL/ETHYL ACETATE (2: 1) FOR 30 WK FOR TOTAL DOSES OF 0, 0.6, 1.2 MMOL (STUDY DURATION: LIFETI, Tumor Site: Type of Lesion: NERVOUS SYSTEM: TUMOR): active; positive; carcinogen call (Species: RAT, Strain/Sex: F344/FEMALE, Route: INTRAVESICULAR, 2.4 MG 2/WK FOR 30 WK (STUDY DURATION: LIFETIME), Tumor Site: Type of Lesion: BRAIN: TUMOR, KIDNEY: TUMOR): active; positive; carcinogen call (Species: RAT, Strain/Sex: F344/FEMALE, Route: ORAL, 20, 40 UMOL/WK IN DRINKING WATER FOR 30 WK FOR TOTAL DOSES OF 0, 0.6, 1.2 MMOL (STUDY DURATION: LIFETIME), 20, 40 UMOL/WK IN DRINKING WATER FOR 30 WK FOR TOTAL DOSES OF 0, 0.6, 1.2 MMOL (STUDY DURATION: LIFETIME), Tumor Site: Type of Lesion: UTERUS: TUMOR, THYROID: FOLLICULAR CELL TUMOR, NERVOUS SYSTEM: TUMOR, Tumor Site: Type of Lesion: UTERUS: TUMOR, THYROID: FOLLICULAR CELL TUMOR, NERVOUS SYSTEM: TUMOR): active; positive; carcinogen call (Species: RAT, Strain/Sex: F344/MALE, Route: GAVAGE, 20, 40 UMOL/WK IN CORN OIL/ETHYL ACETATE (2: 1) FOR 30 WK FOR TOTAL DOSES OF 0, 0.6, 1.2 MMOL (STUDY DURATION: LIFETI, 20, 40 UMOL/WK IN CORN OIL/ETHYL ACETATE (2: 1) FOR 30 WK FOR TOTAL DOSES OF 0, 0.6, 1.2 MMOL (STUDY DURATION: LIFETI, Tumor Site: Type of Lesion: NERVOUS SYSTEM: TUMOR, TESTIS: MESOTHELIOMA): active; positive; carcinogen call (Species: RAT, Strain/Sex: F344/MALE, Route: ORAL, 20, 40 UMOL/WK IN DRINKING WATER FOR 30 WK FOR TOTAL DOSES OF 0, 0.6, 1.2 MMOL (STUDY DURATION: LIFETIME), 20, 40 UMOL/WK IN DRINKING WATER FOR 30 WK FOR TOTAL DOSES OF 0, 0.6, 1.2 MMOL (STUDY DURATION: LIFETIME), Tumor Site: Type of Lesion: TESTIS: MESOTHELIOMA, NERVOUS SYSTEM: TUMOR): active; positive

**Q.** Which carcinogen call (Species: RAT, Strain/Sex: WISTAR/FEMALE, Route: INTRAMUSCULAR, 12.5 MG 1/WK FOR 24 WK (STUDY DURATION: 24 WK), Tumor Site: Type of Lesion: BLADDER: PAPILLOMA OR CARCINOMA) does the source give for `CCCCCCC(=O)O[C@H]1CC[C@H]2[C@@H]3CCC4=CC(=O)CC[C@]4(C)[C@H]3CC[C@]12C` here?
**A.** Its carcinogen call is “active; positive”.

**Q.** What about the carcinogen call (Species: RAT, Strain/Sex: WISTAR/FEMALE, Route: INTRAMUSCULAR, 12.5 MG 1/WK FOR 24 WK ADMINISTERED TO OOPHORECTOMIZED RATS (STUDY DURATION: 24 WK)) of the same compound?
**A.** The carcinogen call was “inactive; negative”.

**Q.** With `CC(C)=CC1C(C(=O)OC(C#N)c2cccc(Oc3ccccc3)c2)C1(C)C` (stereo unspecified) as the compound, how does the carcinogen call (Species: Mouse, Strain/Sex: B6C3F1/Female (80/group), Route: Oral, 100, 300, 1,000 ppm of 94.6-94.9% pure cyphenothrin for 104 wk, 100, 300, 1,000 ppm of 94.6-94.9% pure cyphenothrin for 104 wk) read?
**A.** The carcinogen call was “inactive; negative (study details not presented by dpr evaluator)”.

**Q.** What about the carcinogen call (Species: Mouse, Strain/Sex: B6C3F1/Male (80/group), Route: Oral, 100, 300, 1,000 ppm of 94.6-94.9% pure cyphenothrin for 104 wk, 100, 300, 1,000 ppm of 94.6-94.9% pure cyphenothrin for 104 wk) of the same compound?
**A.** Its carcinogen call is “inactive; negative (study details not presented by dpr evaluator)”.

**Q.** What does the source list for `FC(F)(Cl)Cl`?
**A.** carcinogen call (Species: MOUSE, Strain/Sex: SWISS/FEMALE, Route: INHALATION, 1000, 5000 PPM 4 HR/D 5 D/WK FOR 78 WK (STUDY DURATION: LIFETIME), 1000, 5000 PPM 4 HR/D 5 D/WK FOR 78 WK (STUDY DURATION: LIFETIME)): inactive; negative; carcinogen call (Species: MOUSE, Strain/Sex: SWISS/MALE, Route: INHALATION, 1000, 5000 PPM 4 HR/D 5 D/WK FOR 78 WK (STUDY DURATION: LIFETIME), 1000, 5000 PPM 4 HR/D 5 D/WK FOR 78 WK (STUDY DURATION: LIFETIME)): inactive; negative; carcinogen call (Species: RAT, Strain/Sex: SPRAGUE-DAWLEY/FEMALE, Route: INHALATION, 1000, 5000 PPM 4 HR/D 5 D/WK FOR 104 WK (STUDY DURATION: LIFETIME), 1000, 5000 PPM 4 HR/D 5 D/WK FOR 104 WK (STUDY DURATION: LIFETIME)): inactive; negative; carcinogen call (Species: RAT, Strain/Sex: SPRAGUE-DAWLEY/FEMALE, Route: INHALATION, 1000, 5000 PPM IN AIR 4 HR/D 5 D/WK FOR 104 WK (STUDY DURATION: LIFETIME), 1000, 5000 PPM IN AIR 4 HR/D 5 D/WK FOR 104 WK (STUDY DURATION: LIFETIME), Tumor Site: Type of Lesion: [BRAIN WAS ONLY SITE EVALUATED]): inactive; negative; carcinogen call (Species: RAT, Strain/Sex: SPRAGUE-DAWLEY/MALE, Route: INHALATION, 1000, 5000 PPM 4 HR/D 5 D/WK FOR 104 WK (STUDY DURATION: LIFETIME), 1000, 5000 PPM 4 HR/D 5 D/WK FOR 104 WK (STUDY DURATION: LIFETIME)): inactive; negative; carcinogen call (Species: RAT, Strain/Sex: SPRAGUE-DAWLEY/MALE, Route: INHALATION, 1000, 5000 PPM IN AIR 4 HR/D 5 D/WK FOR 104 WK (STUDY DURATION: LIFETIME), 1000, 5000 PPM IN AIR 4 HR/D 5 D/WK FOR 104 WK (STUDY DURATION: LIFETIME), Tumor Site: Type of Lesion: [BRAIN WAS ONLY SITE EVALUATED]): inactive; negative

**Q.** How did the carcinogen call (Species: MOUSE, Strain/Sex: SWISS/FEMALE, Route: INTRAPERITONEAL, 8 UG/G BW 1/D FOR 30 DAYS (STUDY DURATION: LIFETIME), Tumor Site: Type of Lesion: LYMPHATIC SYSTEM: LYMPHOMA) turn out when `CC1CS(=O)(=O)CCN1/N=C/c1ccc([N+](=O)[O-])o1` (stereo unspecified) was run?
**A.** The carcinogen call was “active; positive”.

**Q.** And the carcinogen call (Species: MOUSE, Strain/Sex: SWISS/FEMALE, Route: INTRAPERITONEAL, 8 UG/G BW 1/D FOR 60 DAYS (STUDY DURATION: LIFETIME), Tumor Site: Type of Lesion: LYMPHATIC SYSTEM: LYMPHOMA)?
**A.** The carcinogen call was “active; positive”.

**Q.** Which carcinogen call (Species: MOUSE, Strain/Sex: B6C3F1/FEMALE, Route: ORAL, 0.22, 0.44% TWA, IN DIET FOR 104 WK (STUDY DURATION: 97-106 WK), 0.22, 0.44% TWA, IN DIET FOR 104 WK (STUDY DURATION: 97-106 WK), Tumor Site: Type of Lesion: LIVER: HEPATOCELLULAR CARCINOMA, HEPATOCELLULAR CARCINOMA OR ADENOMA, URINARY BLADDER: TRANSITIONAL CELL CARCINOMA OR CA) does the source give for `COc1ccc(C)cc1N` here?
**A.** The carcinogen call was “active; positive”.

**Q.** What about the carcinogen call (Species: MOUSE, Strain/Sex: B6C3F1/MALE, Route: ORAL, 0.22, 0.46% TWA, IN DIET FOR 92-104 WK (STUDY DURATION: 92-106 WK), 0.22, 0.46% TWA, IN DIET FOR 92-104 WK (STUDY DURATION: 92-106 WK), Tumor Site: Type of Lesion: URINARY BLADDER: SQUAMOUS CELL CARCINOMA OR TRANSITIONAL CELL CARCINOMA) of the same compound?
**A.** The carcinogen call was “active; positive”.

**Q.** What about the carcinogen call (Species: RAT, Strain/Sex: F344/FEMALE, Route: ORAL, 0.5, 1.0% IN DIET FOR 104 WK (STUDY DURATION: 106 WK), 0.5, 1.0% IN DIET FOR 104 WK (STUDY DURATION: 106 WK), Tumor Site: Type of Lesion: NASAL CAVITY: OLFACTORY NEUROBLASTOMA, URINARY BLADDER: NEOPLASM (NOS) OR PAPILLARY CARCINOMA OR SQUAMOUS CELL CARCINOMA) of the same compound?
**A.** The carcinogen call was “active; positive”.

**Q.** And the carcinogen call (Species: RAT, Strain/Sex: F344/MALE, Route: ORAL, 0.5, 1.0% IN DIET FOR 104 WK (STUDY DURATION: 105-106 WK), 0.5, 1.0% IN DIET FOR 104 WK (STUDY DURATION: 105-106 WK), Tumor Site: Type of Lesion: NASAL CAVITY: NEUROBLASTOMA OR OLFACTORY NEUROBLASTOMA, LIVER: NEOPLASTIC NODULE OR HEPATOCELLULAR CARCINOMA OR MIXED HE)?
**A.** Its carcinogen call is “active; positive”.
